Structures can show the parent of a compound that is named as a salt.
How the values were obtained:
[1] = system: lipid peroxides in the blood serum; test: Antilipid Peroxidation Activity (B), lipid peroxides in blood serum of alloxan-injected mice; type: in vivo, Male ddY mice; details: ip, 24 hours after alloxan 85 mg/kg
Method: (B) Male ddY mice having a body weight of 24 to 27 g were used (i.e., 5 to 9 mice in one group). After 16 to 17 hours nestia, 85 mg/kg of alloxan was rapidly injected into the tail vein of the mice. After injecting the alloxan, the mice were subjected to free feeding and free water intaking and, 24 hours later, the sample compound was intraperitoneally injected into the mice. After an additional 24 hours, anesthesia was applied to the mice with ether and the blood of alvine aorta and cava was sampled. The amounts of the lipid peroxides in the blood serum were quantitatively measured according to a Yagi's method (i.e., K. Yagi, Biochem. Med., 15, 212, 1976).
The results were compared with that of a control group to which only a physiological saline was injected.

Male ddY mice [2] = test: Scopolamine Amnesia Activity (step-through passive avoidance learning); type: in vivo; details: Mus musculus; ip immediately after first session; scopolamine 0.5 mg/kg hypodermically; retention test 24 hours later; read-out: Scopolamine Amnesia EDmin (Minimum effective dose)
Excerpt: Ten male ddY mice having a body weight of 22 to 30 g were used as one group. A slit was located between a light room and a dark room. In the dark room, an arrangement was made whereby an electric shock was given to the feet by an electric current. Thus, the behavior of the mice in relation to step-through to the dark room was studied. The mice were amnesically treated with an administration of scopolamine with or without the injection of the sample compound 1 or 7 and the time taken to avoid step-through by the mice to the dark room was determined by the so-called step-through passive avoidance learning method. The electric current used was 0.6 mA. The scopolamine was hypodermically injected in an amount of 0.5 mg/kg at 20 minutes prior to the first session and the sample compound was intraperitoneally injected immediately after the first session. The retention test (i.e., the second session) was carried out 24 hours later.

Male mice = test: Hemicholinium No. 3 (HC-3) Induced Anoxia Activity (survival time); type: in vivo; details: Mus musculus; ip, 15 minutes before 5 mg/kg hemicholinium No. 3 into tail vein; read-out: HC-3 Induced Anoxia EDmin (Minimum effective dose)
Method: Male mice having a body weight of 22 to 30 g were used (i.e., 7 to 10 mice in one group). The sample compound prepared in the Synthesis Example 1 or 7 was intraperitoneally injected into the mice and, 15 minutes later, 5 mg/kg of hemicholinium No. 3 was injected into the tail vein of the mice. The time from the injection of hemicholinium No. 3 to the termination of breathing by the mice was determined to be the survival time. The results were compared with that of a control group to which only a physiological saline was injected.

Male ddY mice [3] = test: Hypobaric Hypoxia Activity (survival time at 180 mmHg); type: in vivo; details: for minimal effective dose: Mus musculus, ip, 30 minutes before evacuation to 180 mmHg, vs physiological saline, read-out: Hypobaric Hypoxia EDmin (Minimum effective dose)
Method: Male ddY mice having a body weight of 22 to 30 g were used (i.e., 7 to 10 mice in one group). The mice were […] sample compound prepared in the Synthesis Example 1 or 7 was intraperitoneally injected into the mice. The desiccator was evacuated 30 minutes after the injection and the time from the start of the evacuation to the termination of breathing by the mice was determined to be the survival time. If a mouse was still alive 15 minutes after exposure to the hypoxia, the survival time was assumed to be 15 minutes.

Male ddY mice [4] = test: Normobaric Hypoxia Activity (survival time in 96% N2 and 4% O2); type: in vivo; details: ip, 30 minutes before
Method: Male ddY mice having a body weight of 22 to 30 g were used (i.e., 7 to 10 mice in one group). The sample compound prepared in the Synthesis Example 1 or 7 was intraperitoneally injected into the mice and, 30 minutes later, the mice were placed in a desiccator having a volume of about 1 liter and filled with a gas mixture of 96% N2 and 4% O2. The survival time up to the termination of breathing by the mice was determined. During the test, the N2 --O2 gas mixture was continuously supplied at a rate of 3 l/min. When the survival time was more than 15 minutes, the survival time was assumed to be 15 minutes. The results were compared with a control group, to which only a physiological saline was injected.

Male ddY mice [5] = test: Global Ischemia Activity (gasping time after decapitation); type: in vivo; details: for minimal effective dose: Mus musculus, ip, 30 minutes before decapitation, vs saline control, read-out: Global Ischemia EDmin (Minimum effective dose); for extension of the gasping time: at a dose of 50 mg/kg or less, injected
Method: Male ddY mice having a body weight of 22 to 30 g were used (i.e., 6 mice in one group). The sample compound prepared in the Synthesis Example 1 or 7 was intraperitoneally injected into the mice and the mice were decapitated 30 minutes after the injection. After decapitation, the gasping times were determined. The results were compared with a control group to which only the saline was injected.

rat brain homogenate = test: Antilipid Peroxidation Activity (A), rat brain homogenate, TBA reaction; type: biochemical, Male Wister rats; details: at 10^-4 M, 37° C., 30 minutes
Method: (A) Male Wister rats having a body weight of 350 to 380 g were used. A rat was decapitated and the whole brain other than the cerebellum was homogenized in 10 times volume of ice cooled 50 mM buffered saline (PBS) having a pH of 7.4. The homogenized mixture was then centrifugally separated and the resultant supernatant frozen at a temperature of -30° C. The frozen specimen was melted in flowing water and was then diluted with 3 times volume PBS to prepare the diluted homogenate.
A 10 μl of a solution of the sample compound prepared in the Synthesis Example 1 or 7 was added to 1 ml of the diluted homogenate obtained above and the mixture was incubated at a temperature of 37° C. for 30 minutes. […]
As is the case of the test compound solution, 10 μl of the standard solution of tetramethoxypropane (TMP) was prepared and was added to the reaction mixture in amounts of 0 to 10 nmole/tube. […] Thereafter, the resultant layers were stabilized for 10 minutes at 2,000 rpm and the absorbance of the organic layer at 532 nm or the fluorescence intensity of the organic layer at 553 nm (excited at 515 nm) were determined. The lipid peroxide content was determined and represented a nmole number of malon dialdehyde (MDA) per mg of protein. The protein was determined by a Lawry method (i.e., Lawry et al., J. Biol. Chem., 193, 265 (1951)).

**Q.** How did the “inhibition of the formation of the lipid peroxides” value (shortened to “inhibition … of the lipid peroxides”) ([1]; at a dose of 10 mg/kg) turn out when `COc1ccc(O)c(C(CCC(=O)NCc2ccccn2)c2ccccc2)c1` (stereo not shown) [Example 9] was run?
**A.** The value was “caused inhibition”.

**Q.** With `COc1ccc(O)c(C(CCC(=O)N2CCNCC2)c2ccccc2)c1` (stereo not shown) [Example 28, 4-(2-hydroxy-5-methoxy)phenyl-4-phenyl-1-piperazinyl-1-oxobutane] as the compound, how does the “inhibition … of the lipid peroxides” value ([1]; at a dose of 50 mg/kg) read?
**A.** Its value is “significant difference in the inhibition of the formation of the lipid peroxides”.

**Q.** `COc1ccc(O)c(C(CCC(=O)N2CCN(C)CC2)c2ccccc2)c1` (stereo not shown) [Example 1, 4-(2-hyddroxy-5-methoxy)phenyl-4-phenyl-1-(4-methyl)piperazinyl-1-oxobutane] was tested. Which minimal effective dose (Male ddY mice [2]) did it give?
**A.** The minimal effective dose was 50 mg/kg.

**Q.** And the “inhibition … of the lipid peroxides” value ([1]; at a dose of 10 mg/kg)?
**A.** Its value is “caused inhibition”.

**Q.** And the minimal effective dose (Male mice)?
**A.** The minimal effective dose was 50 mg/kg.

**Q.** And the minimal effective dose (Male ddY mice [3])?
**A.** The minimal effective dose was 50 mg/kg.

**Q.** And the minimal effective dose (Male ddY mice [4]; Mus musculus, read-out: Normobaric Hypoxia EDmin (Minimum effective dose))?
**A.** The minimal effective dose was 50 mg/kg.

**Q.** And the minimal effective dose (Male ddY mice [5])?
**A.** Its minimal effective dose is 25 mg/kg.

**Q.** And the “Antilipid Peroxidation, % inhibition of the rat brain homogenate” value (rat brain homogenate)?
**A.** The value was 95.4%.

**Q.** For `COc1ccc(O)c(C(CCC(=O)N2CCCC2)c2ccccc2)c1` (stereo not shown) [Example 13], which “inhibition … of the lipid peroxides” value ([1]; at a dose of 50 mg/kg) is on record?
**A.** Its value is “significant difference in the inhibition of the formation of the lipid peroxides”.

**Q.** How did the “inhibition … of the lipid peroxides” value ([1]; at a dose of 50 mg/kg) turn out when `COc1ccc(O)c(C(CCC(=O)N2CCCCC2)c2ccccc2)c1` (stereo not shown) [Example 3] was run?
**A.** Its value is “significant difference in the inhibition of the formation of the lipid peroxides”.

**Q.** For `COc1ccc(O)c(C(CCC(=O)N2CCCN(C(=O)CCC(c3ccccc3)c3cc(OC)ccc3O)CC2)c2ccccc2)c1` (stereo not shown) [Example 31, N,N'-bis-[(4-(2-hydroxy-5-methoxy)phenyl-4-phenyl)-1-oxobutyl]homopiperazine], which “inhibition … of the lipid peroxides” value ([1]; at a dose of 50 mg/kg) is on record?
**A.** Its value is “significant difference in the inhibition of the formation of the lipid peroxides”.

**Q.** Which “extension of the gasping time” value (Male ddY mice [5]) does the source give for `COc1ccc(O)c(C(CCC(=O)N2CCCNCC2)c2ccccc2)c1` (stereo not shown) [Example 30, 4-(2-hydroxy-5-methoxy)phenyl-4-phenyl-1-homopiperazinyl-1-oxobutane] here?
**A.** The value was “significant difference in the extension of the gasping time”.

**Q.** With `COc1ccc(O)c(C(CCC(=O)N2CCN(c3ccccc3)CC2)c2ccccc2)c1` (stereo not shown) [Example 4] as the compound, how does the “inhibition … of the lipid peroxides” value ([1]; at a dose of 10 mg/kg) read?
**A.** The value was “caused inhibition”.

**Q.** With `COc1ccc(O)c(C(CCC(=O)OCCN(C)C)c2ccccc2)c1` (stereo not shown) [Example 36, 4-(2-hydroxy-5-methoxy)phenyl-4-phenyl-1-(2-dimethylamino)ethyloxy-1-oxybutane] as the compound, how does the “inhibition … of the lipid peroxides” value ([1]; at a dose of 10 mg/kg) read?
**A.** The value was “caused inhibition”.

**Q.** How did the “extension of the gasping time” value (Male ddY mice [5]) turn out when `COc1ccc(O)c(C(CCC(=O)NCCN2CCNCC2)c2ccccc2)c1` (stereo not shown) [Example 32] was run?
**A.** Its value is “significant difference in the extension of the gasping time”.

**Q.** `COc1ccc(O)c(C(CCC(=O)N2CCCN(C)CC2)c2ccccc2)c1` (stereo not shown) [Example 18] was tested. Which “inhibition … of the lipid peroxides” value ([1]; at a dose of 50 mg/kg) did it give?
**A.** Its value is “significant difference in the inhibition of the formation of the lipid peroxides”.

**Q.** How did the “inhibition … of the lipid peroxides” value ([1]; at a dose of 50 mg/kg) turn out when `COc1ccc(O)c(C(CCC(=O)NCCN2CCN(C(=O)CCC(c3ccccc3)c3cc(OC)ccc3O)CC2)c2ccccc2)c1` (stereo not shown) [Example 33, 4-(2-hydroxy-5-methoxy)phenyl-1-[4-(2-(4-(2-hydroxy-5-methoxy)phenyl-4-phenyl-1-oxo)aminoethyl)piperadinyl]-1-oxobutane] was run?
**A.** The value was “significant difference in the inhibition of the formation of the lipid peroxides”.

**Q.** What about the “extension of the survival time (hypobaric hypoxia)” value (Male ddY mice [3]; at a dose of 50 mg/kg or less, injected) of the same compound?
**A.** The value was “significant difference in the extension of the survival time”.

**Q.** And the “extension of the gasping time” value (Male ddY mice [5])?
**A.** Its value is “significant difference in the extension of the gasping time”.

**Q.** Which “survival time (hypobaric hypoxia) compared with the control group” value (Male ddY mice [3]; dose not clearly stated) does the source give for `COc1ccc(O)c(C(CCC(=O)NCCN2CCCCC2)c2ccccc2)c1` (stereo not shown) [Example 19, 4-(2-hydroxy-5-methoxy)phenyl-4-phenyl-1-(2-piperidinyl)ethylamino-1-oxobutane hydrochloride] here?
**A.** The value was “reduced the survival time”.

**Q.** And the “extension of the gasping time” value (Male ddY mice [5])?
**A.** Its value is “significant difference in the extension of the gasping time”.

**Q.** How did the “inhibition … of the lipid peroxides” value ([1]; at a dose of 5 mg/kg) turn out when `COc1ccc(O)c(C(CCC(=O)N2CCSCC2)c2ccccc2)c1` (stereo not shown) [Example 8] was run?
**A.** Its value is “caused inhibition”.

**Q.** What does the source list for `COc1ccc(O)c(C(CCC(=O)N(C)Cc2ccccc2)c2ccccc2)c1` (stereo not shown) [Example 6]?
**A.** inhibition of the formation of the lipid peroxides ([1]; at a dose of 10 mg/kg): caused inhibition; extension of the gasping time (Male ddY mice [5]): significant difference in the extension of the gasping time

**Q.** Which minimal effective dose (Male ddY mice [2]) does the source give for `COc1ccc(O)c(C(CCC(=O)N2CCN(CCO)CC2)c2ccccc2)c1` (stereo not shown) [Example 7] here?
**A.** The minimal effective dose was 25 mg/kg.

**Q.** And the minimal effective dose (Male mice)?
**A.** The minimal effective dose was 25 mg/kg.

**Q.** And the minimal effective dose (Male ddY mice [3])?
**A.** Its minimal effective dose is 50 mg/kg.

**Q.** And the “Normobaric Hypoxia EDmin (Minimum effective dose)” value (Male ddY mice [4])?
**A.** The value was “Inactive at 50 mg/kg, ip”.

**Q.** And the minimal effective dose (Male ddY mice [5])?
**A.** Its minimal effective dose is 50 mg/kg.

**Q.** And the “Antilipid Peroxidation, % inhibition of the rat brain homogenate” value (rat brain homogenate)?
**A.** The value was 88.0%.

**Q.** How did the “inhibition … of the lipid peroxides” value ([1]; at a dose of 10 mg/kg) turn out when `COc1ccc(O)c(C(CCC(=O)N2CCN(C(=O)CCC(c3ccccc3)c3cc(OC)ccc3O)CC2)c2ccccc2)c1` (stereo not shown) [Example 29, N,N'-bis[(4-(2-hydroxy-5-methoxy)phenyl-4-phenyl)-1-oxobutyl]piperazine] was run?
**A.** The value was “caused inhibition”.

**Q.** `COc1ccc(O)c(C(CCC(=O)NN2CCOCC2)c2ccccc2)c1` (stereo not shown) [Example 12] was tested. Which “inhibition … of the lipid peroxides” value ([1]; at a dose of 50 mg/kg) did it give?
**A.** Its value is “significant difference in the inhibition of the formation of the lipid peroxides”.

**Q.** With `CCOC(=O)c1ccc(Oc2cccc(OC)c2)c(NC(=O)CCC(c2ccccc2)c2cc(OC)ccc2O)c1` (stereo not shown) [Example 15] as the compound, how does the “extension of the gasping time” value (Male ddY mice [5]) read?
**A.** Its value is “significant difference in the extension of the gasping time”.

— patent publication US4766116A, “Diaryl butyric acid derivative and pharmaceutical use thereof” (Suntory Limited, priority 1984, dated 1988)
